According to a melting point compilation (Tetko et al.; mined from patent text by program, amines drawn as free bases though some values may be those of a salt):

| SMILES | melting point [°C] |
| --- | --- |
| COC(=O)CCCCC(O)c1ccc(CCc2ccccc2)cc1 (stereo not drawn) | 56 to 58 |
| CC(c1oc2ccccc2c(=O)c1-c1ccccc1F)n1cnc2c(N)ncnc21 (stereo not drawn) | 247 to 250 |
| Cc1noc(NC(=O)N2CCN(c3nccc(-c4cc(F)cc(F)c4)n3)CC2)c1C | 241 to 242 |
| COc1ccc(NC(=O)c2ccc(F)c(F)c2)cc1NCc1cccs1 | 187 to 189 |
| CN(C)c1ccc(S(=O)(=O)n2c(CCCC(=O)O)cc3nc(Cl)ccc32)c(Cl)c1 | 208 |
| CN1C(=O)N(c2ccc(C#N)c(C(F)(F)F)c2)C(=O)C1(CO)c1ccccc1 (stereo not drawn) | 160 |
| NN(C(=O)c1c(F)cccc1Cl)c1ccccc1C(F)(F)F | 147 to 148 |
| CCCCCCCCCCCOc1ccc(C(=O)O)cc1OCCCCCCCCCCC | 98 to 101 |
| Cc1ccc2c(c1)C1(COc3cc4c(cc31)OCO4)C(=O)N2 (stereo not drawn) | 269 to 271 |
| O=c1ccc(-c2cc(Cl)c(O)c(Cl)c2)n[nH]1 | > 300 |
| CCCN(C(=O)Cl)C(=O)CCl | 40 to 44 |
| C=CCC1CC(NC(=O)C(F)(F)F)C(OC(=O)c2ccc([N+](=O)[O-])cc2)C(C)O1 (stereo not drawn) | 138 to 139 |
| Cc1cc(NC(=O)OC(C)(C)C)c([N+](=O)[O-])cc1I | 99 to 100 |
| Nc1ccc(C2=NNC(=O)C3CC23)cc1 (stereo not drawn) | 230 to 231 |
| CCCCn1c(N)cc(=O)n(CCCC)c1=O | 90.1 to 92.4 |
| CCN1c2ncc(CSc3ncnc4[nH]ncc34)cc2C(=O)N(C)c2ccc(Cl)nc21 | 128 to 130 |
| CCN1CC(OCC2(C)CC2)(C(F)(F)F)c2cc(Cl)ccc2NC1=O (stereo not drawn) | 171 to 172 |
| COc1cc(OC)c2c(=O)[nH]c(-c3cc(C)c(OCCN4CCCCCC4)c(C)c3)nc2c1 | 198 to 199 |
| COc1ccc(-c2ccc3c(C(N)=O)nn(-c4ccc(S(N)(=O)=O)cc4)c3c2)cc1 | 258 to 259 |
| COc1ccc(-c2c(Cl)c(CNC3CC3)nc3sc4c(c23)CCN(Cc2ccccc2)C4)cc1OC | 131 to 132 |
| CCCCNC(=O)C1(c2ccccc2)CCN(C)CC1 | 73 to 76.5 |
| Cc1nc2ncnn2c2c1CCN2c1c(Cl)cccc1Cl | 192 to 194 |
| Cn1cc2c(=O)[nH]c(=O)[nH]c2n1 | 200 |
| CCOC(=O)c1c(CC(=O)O)n(-c2ccc(OC(C)C)cc2)c2ccc(Oc3ccc(CCl)cn3)cc12 | 153 to 155 |
| O[C@@H]1CNC[C@H]1Sc1ccccc1 (relative stereo) | 140 to 141 |

| SMILES | melting point [°C] |
| --- | --- |
| Cc1ccc(OCc2nc(N)c3nccnc3n2)cc1 | 225 to 227 |
| CC[C@H](C)[C@H](NC(=O)N(C)Cc1ccccn1)C(=O)N[C@@H](Cc1ccccc1)[C@@H](O)C[C@H](Cc1ccccc1)NC(=O)OCc1cncs1 | 66 to 69 |
| N#CC(Nc1cc(Cl)c(Cl)cc1Cl)c1ccccc1 (stereo not drawn) | 124 |
| C=CC(=O)NCc1ccc([N+](=O)[O-])cc1 | 119 to 121 |
| CC(=O)NS(=O)(=O)c1cccc(N)c1 | 148 to 150 |
| CC(=O)Nc1ccccc1Sc1ccc([N+](=O)[O-])cc1[N+](=O)[O-] | 183 to 184 |
| COc1cc(/C=C/C(=O)Nc2ccccc2C(=O)O)ccc1OCc1cccnc1 | 245 to 251 |
| COC(=O)c1csc2nc(N)sc12 | 221 to 223 |
| CCCCc1nn2c(-c3ccccc3)cnc2n1Cc1ccc(-c2ccccc2-c2nnn[nH]2)cc1 | > 70 |
| Cc1ccc(C2(O)c3c(C)c(NC(=O)CC(C)(C)C)c(C)c(C)c3OC2(C)C)cc1 (stereo not drawn) | 146 to 148 |
| Oc1ccc(-c2nc3cc(O)cc(-c4ccccc4)c3o2)cc1 | 92 |
| CCOC(=O)c1cc2ccc(Cl)nc2[nH]1 | 144 to 145 |
| CSc1ccc(C(=O)N2CC2C#N)nn1 (stereo not drawn) | 97 to 100 |
| CCOc1nc(=O)n(C(=O)NC(Cl)=C(Cl)Cl)s1 | 123 |
| Nc1ccc(Oc2ccccc2)c(Cl)c1 | 31 to 33 |
| CC(CC(=O)O)n1nnnc1S (stereo not drawn) | 169 to 172 |
| CC1(C)OC(=S)Nc2ccc(-c3ccccc3F)cc21 | 171 to 173 |
| COc1ccc2c(c1)C(C(Cl)(Cl)Cl)OC(C(Cl)(Cl)Cl)O2 (stereo not drawn) | 105 to 107 |
| O=C1c2ccccc2C(O)(c2ccc(Cl)cc2)N1Cc1ccc([N+](=O)[O-])cc1 (stereo not drawn) | 197 to 200 |
| CNC(=O)c1ccc2ccccc2c1 | 108 to 109 |
| COCCOCOc1c(C(C)(C)C)cc(-c2ccc(C#N)c(C#N)c2)cc1C(C)(C)C | 130 to 131 |
| CC1(C)Oc2ccc(C#N)cc2[C@@H](NC2=CC(=O)OC2)[C@@H]1O (relative stereo) | 182 |
| O=c1cc(-c2ccccc2)sn1-c1nc2ccccc2s1 | 201 to 202 |
| N#CCc1ccc(-c2cn3ccccc3n2)cc1 | 175 to 177 |

Second part, the molecule after the results:

| melting point [°C] | SMILES |
| --- | --- |
| 66 to 67.5 | CCCCCCCCOC(=O)n1c(-c2cscn2)nc2ccccc21 |
| 193 to 195 | CC(=C1SC(=S)NC1=O)c1ccccc1C(=O)O |
| 184 to 185 | CCOC(=O)CN1Cc2c(C)cccc2NC1=O |
| 161 to 162 | CCOCc1nc2c(N)nc3ccccc3c2n1CC(C)(C)N |
| 142 to 144 | CCOC(=O)NN(C)c1cc(C)c(-c2cccc([N+](=O)[O-])c2)nn1 |
| 145 to 147 | Cc1ccc([C@H](CC(=O)O)NC(=O)Nc2c(N)cc(C)n(Cc3ccccc3Cl)c2=O)cc1 |
| 115 to 130 | CC(C)(C)OC(=O)Nc1ccc(-c2ccccc2F)cc1NC(=O)CC(=O)c1csc(-n2ccnc2)n1 |
| 164 to 166 | Cc1c(O)cc(O)c(C)c1C(=O)OCc1ccc([N+](=O)[O-])cc1 |
| 166 to 168 | Cc1ccccc1C(=O)N1CCC(=NO)c2ccc(Cl)cc21 |
| 140 | CC(C)(C)OC(=O)Nc1cc(OCC2COC(=O)O2)c(C#Cc2ccccc2)cc1N (racemic) |
| 117 to 119 | CCOC(=O)C1=C(COCC(C)=O)NC(C)=C(C(=O)OC)C1c1cccc(Cl)c1Cl (stereo not drawn) |
| 115 to 117 | CCOC(=O)COc1cc2c(C)csc2c(Cl)c1Cl |
| 149 to 150 | CCOC(=O)C(C(=O)OCC)N1CC(N2C(=O)c3ccccc3C2=O)C1=O (stereo not drawn) |
| 213 to 214 | Cc1ccc(Oc2ccccc2-c2noc(=O)[nH]2)c(O)c1 |
| 107 to 109 | C[C@@H]1CN(CCCn2c3ccccc3c3ccccc32)C[C@H](C)N1 |
| 259 to 260 | O=C1N=C(c2ccccc2OCC2CC2)N=C2N=CN=C12 |
| 157 | O=C1/C(=C(/c2ccccc2)N2CCCC2)Sc2ccccc21 |
| 89 to 90 | CCOC(=O)Cc1c(C)nn(-c2ccccn2)c1-c1ccccc1 |
| 149 to 150 | CC(=O)c1cc(-c2ccccc2)c(=O)n2c1-c1sccc1CC2 |
| 174 to 175 | CCCCOc1c(CNC(=O)OC(C)(C)C)n(CC(C)C)c(=O)c2ccc(NC(C)=O)cc12 |
| 120 | CCOC(=O)C1=C(COCCNc2nc(C(=O)NC)cs2)NC(C)=C(C(=O)OC)C1c1ccccc1Cl (stereo not drawn) |
| 235 to 237 | O=C1CCC(N2C(=O)c3cccc(Nc4ccc5ccccc5c4)c3C2=O)C(=O)N1 (stereo not drawn) |
| 191 | CCCOc1nc(NC(C)=O)nc2ccc(Cl)nc12 |
| 79 | CCCCSc1ccc(C2CC(=O)C(C(=O)CC)=C(O)C2)cc1 (stereo not drawn) |
